According to article PMC10178127, “Immunomodulatory Effects of the Pea Defensin Psd1 in the Caco-2/Immune Cells Co-Culture upon Candida albicans Infection” (International Journal of Molecular Sciences, 2023):

Test system: polarized Caco-2 monolayer
Experiment: Real-time PCR of HBD-2, IL-1β, IL-8/CXCL8 genes in Caco-2 cells
Assay type: cell-based, human
Protocol: Caco-2 cells were seeded into the wells of 24-well plates in the complete RPMI-1640 medium containing 10% FBS and 1X antibiotic-antimycotic solution and kept in a humidified CO2-incubator (5% CO2, 37 °C). Cells were grown for 18 days and the medium was changed twice a week. The presence of a cell monolayer was checked using an inverted microscope and the plates were incubated one more week for complete polarization of Caco-2 cells. Caco-2 cells were stimulated by adding fresh complete RPMI-1640 medium without antibiotics, containing Psd1 at the final concentration of 2 µM or Candida albicans at the concentration of 5 × 10^4 cells/mL (1.3 × 10^4 cells per cm^2 of Caco-2 monolayer) or yeast cells together with the pea defensin at the same concentration. RPMI-1640 medium only was used in control wells.
Total RNA was isolated from Caco-2 cells using TRIzol reagent (Invitrogen) according to the manufacturer’s instructions after 4 or 24 h of stimulation and cell washing by RPMI-1640 medium. The quality and quantity of total RNA were determined by the A260/280 ratio using NanoPhotometer NP80 (Implen GmbH, München, Germany) as well as agarose gel electrophoresis (Supporting Materials, Figure S3). RNase inhibitor (Evrogen, Moscow, Russia) was added to the final preparation of total RNA. Two μg of total RNA was taken to synthesize the cDNA using MINT-Universal cDNA synthesis kit (Evrogen, Moscow, Russia) containing MMLV-based reverse transcriptase following the manufacturer’s instructions.
Real-time PCR was performed on CFX Opus 96 Real-Time PCR System (Bio-Rad, Hercules, CA, USA) using the SYBR Green PCR kit (Evrogen, Moscow, Russia) and target-specific primers (Supporting Materials, Table S4). The internal control housekeeping gene GAPDH was amplified simultaneously in separate reaction tubes [36]. The reaction conditions were set as follows: initial heating at 95 °C for 3 min, followed by 50 cycles of reactions at 95 °C (15 s), followed by 62 °C (20 s), and finally 72 °C (30 s). Melt curves were obtained using a temperature increment from 50 to 95 °C at 0.5 °C/5 s (Supporting Materials, Figure S4). The threshold cycle number (CT) of reactions was determined using the CFX Maestro 2.2 (version 5.2.008.0222) software (Bio-Rad, Hercules, CA, USA). The efficiency of PCR was monitored by using LinRegPCR online tool (https://www.gear-genomics.com/rdml-tools/). The relative expression of the genes of interest was calculated by normalization to GAPDH using the standard 2^−ΔΔCT method. Unstimulated Caco-2 cells after 4 and 24 h of incubation were used as controls. Experiments were performed twice in six technical replications. Gene expression in controls and experimental samples was compared with a t-test using GraphPad Prism v.8.0.1. The p-values ≤ 0.05 were considered significant.

Psd1: pea defensin from Pisum sativum (UNIPROT P81929), recombinant peptide overexpressed in Escherichia coli (KTCEHLADTYRGVCFTNASCDDHCKNKAHLISGTCHNWKCFCTQNC; UniProt P81929 1-46, looked up)
expression of HBD-2, IL-1β and IL-8/CXCL8 genes (2 μM Psd1, 24 h): Immunostimulatory action of Psd1 was observable
expression of HBD-2, IL-1β and IL-8/CXCL8 genes (2 μM Psd1 alone, 4 h, relative to untreated Caco-2): upregulated all three genes
expression of HBD-2, IL-1β and IL-8/CXCL8 genes (2 μM Psd1 with C. albicans vs C. albicans alone, 24 h, p < 0.05): significantly reduced the inhibitory effect of pathogenic fungus
expression of HBD-2, IL-1β and IL-8/CXCL8 genes (2 μM Psd1 with C. albicans, 4 h): more pronounced activation of the protective immune response
